# Test results reported in article PMC8215855 (Journal of medicinal chemistry, 2020).
# Legend:
# [1] = tested on: sickle cell disease model; settings: SCD mice; cited from earlier work
# blood S1P levels [2] = settings: rats dosed with 10 mg/kg; cited from earlier work
# human SphK1 = settings: read-out: human SphK1 Ki; cited from earlier work
# mouse SphK2 = settings: read-out: mouse SphK2 Ki; cited from earlier work
# blood S1P concentration = settings: treatment in mice; cited from earlier work
# [3] = Blood concentration of compound in mice after i.p. dose; type: in vivo; settings: single 10 mg/kg i.p., C57BL/6 male mice, LC-MS/MS
# blood S1P levels [4] = assay: Blood S1P levels in mice after i.p. dose; type: in vivo; settings: single 10 mg/kg i.p., C57BL/6 male mice
smiles,measurement,setting,value
Cc1cc(CS(=O)(=O)c2ccccc2)cc(OCc2ccc(CN3CCC[C@@H]3CO)cc2)c1 [Compound 3a],blood and plasma S1P levels,[1],reduced
same,erythrocyte sickling,[1],decreased
CCCCCCCCc1ccc(-c2noc(C[C@@H]3CCCN3C(=N)N)n2)cc1 [Compound 4],decrease of blood S1P levels,blood S1P levels [2],about 80%
Cc1ccc(S(=O)(=O)Nc2ccccc2/C=N/c2ccccc2NS(=O)(=O)c2ccc(C)cc2)cc1 [Compound 5],Ki,human SphK1,27 ± 3 µM
CCCCCCCCc1ccc(-c2noc([C@@H]3CCCN3C(=N)N)n2)cc1 [Compound 7],Ki,mouse SphK2,1.3 µM
CCCCCCCCOc1ccc(-c2noc([C@@H]3CCCN3C(=N)N)n2)cc1C(F)(F)F.Cl [Compound 8],blood S1P concentration,blood S1P concentration,increase in blood S1P concentration
"Cl.N=C(N)N1CCC[C@H]1c1nc(-c2ccc(OCc3ccc(C(F)(F)F)cc3)c(C(F)(F)F)c2)no1 [Compound 10, (S)-2-(3-(3-(trifluoromethyl)-4-((4-(trifluoromethyl)benzyl)oxy)phenyl)-1,2,4-oxadiazol-5-yl)pyrrolidine-1-carboximidamide]",peak level of compound in blood,[3],~ 8 μM
same,time blood S1P levels remained elevated,blood S1P levels [4],up to 6 hours
same,increase of blood S1P levels,blood S1P levels [4]; after 4 hours,nearly two-fold
